Experimental data reported in paper PMC8788879 (Nuclear medicine and biology, 2020).
pKi: −log10 of the molar value.

Biological target: Aβ1–40 fibrils (amyloid-β) (Homo sapiens, UniProt P05067)
Type: binding

Chain of Aβ1–40 fibrils (amyloid-β) (P05067 672-711): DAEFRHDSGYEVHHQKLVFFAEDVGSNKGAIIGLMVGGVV

| pKi | SMILES |
| --- | --- |
| 8.07 | COc1cc(/C=C/c2cc(C)c(O)c(C)c2)ccc1/C=C/c1ccc(C(=O)O)cc1 [compound 1, 4-((E)-4-((E)-4-hydroxy-3,5-dimethylstyryl)-2-methoxystyryl) benzoic acid] |
| 7.63 | COc1cc(/C=C/c2ccc(O)cc2)ccc1/C=C/c1ccc(O)cc1 [compound 2, methoxy-X04] |
